Measured values from patent US7964531B2, “3-phenoxy-4-pyridazinol derivatives and herbicidal composition containing the same” (Mitsui Chemicals Agro, Inc., priority 2001, dated 2011).

Key:
Type in all cases: in vivo
Conditions in all cases: wettable powder applied 3 days after transplanting, judged after 25 days
[1] = test system: Cyperus serotinus; assay: Test Example 1: herbicidal effects, paddy-field pot test
Experimental: (§1) A paddy soil was filled in 1/10,000 are pot, and seeds of barnyardgrass (Echinochloa oryzicola Vasing.), Scirpus joncoides and annual broad-leaved weeds (Lindernia spp., Rotala indica) which are awaken from dormancy were mixed at the surface layer of 1 cm. Also, tuber of Cyperus serotinus which is germinated was planted, and further seedlings of paddy-field rice at 2.2-leaf stage were transplanted, and they were grown under the flooded condition in a greenhouse. After 3 days from transplanting, a predetermined chemical dosage of the wettable powder prepared in accordance with Preparation example 1 was diluted in water, and the solution was applied to the pot and herbicidal effects and crop injury against transplanted paddy-field rice were judged after 25 days from the treatment. Also, 3-(2-allylphenoxy)-6-chloro-4-methoxypyridazine described in Chemical Pharmaceutical Bulletin, 1972, vol. 20, No. 10, pp. 2191-2203 was used as Comparative compound. Incidentally, herbicidal effects and crop injury against transplanted paddy-field rice were judged by the following judgment standard, and “-” in the table means no test was carried out.
(§2) Judgment Standard • 0: Growth inhibition rate; 0 to 10% • 1: Growth inhibition rate; 11 to 30% • 2: Growth inhibition rate; 31 to 50% • 3: Growth inhibition rate; 51 to 70% • 4: Growth inhibition rate; 71 to 90% • 5: Growth inhibition rate; 91 to 100%.

[2] = test system: Scirpus joncoides; assay: as above
Experimental: as §1, §2

[3] = test system: annual broad-leaved weeds (Lindernia spp., Rotala indica); assay: as above
Experimental: as §1, §2

[4] = test system: barnyardgrass (Echinochloa oryzicola Vasing.); assay: as above
Experimental: as §1, §2

[5] = test system: transplanted paddy-field rice; assay: Test Example 1: crop injury against transplanted paddy-field rice
Experimental: as §1, §2

With Cc1ccc(Br)c(Oc2nnc(Cl)cc2O)c1C [Example 294] the “Herbicidal effects Cyperus serotinus” value ([1]; chemical dosage 10 g/a) was 5 (Growth inhibition rate; 91 to 100%), the “Herbicidal effects Cyperus serotinus” value ([1]; chemical dosage 20 g/a) was 5 (Growth inhibition rate; 91 to 100%) and the “Herbicidal effects Scirpus joncoides” value ([2]; chemical dosage 10 g/a) was 5 (Growth inhibition rate; 91 to 100%). The “Herbicidal effects Scirpus joncoides” value ([2]; chemical dosage 20 g/a) was 5 (Growth inhibition rate; 91 to 100%), the “Herbicidal effects Broad leaf” value ([3]; chemical dosage 10 g/a) was 5 (Growth inhibition rate; 91 to 100%) and the “Herbicidal effects Broad leaf” value ([3]; chemical dosage 20 g/a) was 5 (Growth inhibition rate; 91 to 100%). The “Herbicidal effects Barnyard grass” value ([4]; chemical dosage 10 g/a) was 1 (Growth inhibition rate; 11 to 30%), the “Herbicidal effects Barnyard grass” value ([4]; chemical dosage 20 g/a) was 2 (Growth inhibition rate; 31 to 50%) and the “Crop injury against transplanted rice” value ([5]; chemical dosage 10 g/a) was 0 (Growth inhibition rate; 0 to 10%). The “Crop injury against transplanted rice” value ([5]; chemical dosage 20 g/a) was 0 (Growth inhibition rate; 0 to 10%).

For Oc1cc(Cl)nnc1Oc1c(C2CC2)cccc1C1CC1 [Example 275], the “Herbicidal effects Cyperus serotinus” value ([1]; chemical dosage 10 g/a) was 5 (Growth inhibition rate; 91 to 100%), the “Herbicidal effects Cyperus serotinus” value ([1]; chemical dosage 20 g/a) was 5 (Growth inhibition rate; 91 to 100%) and the “Herbicidal effects Scirpus joncoides” value ([2]; chemical dosage 10 g/a) was 5 (Growth inhibition rate; 91 to 100%). The “Herbicidal effects Scirpus joncoides” value ([2]; chemical dosage 20 g/a) was 5 (Growth inhibition rate; 91 to 100%), the “Herbicidal effects Broad leaf” value ([3]; chemical dosage 10 g/a) was 5 (Growth inhibition rate; 91 to 100%) and the “Herbicidal effects Broad leaf” value ([3]; chemical dosage 20 g/a) was 5 (Growth inhibition rate; 91 to 100%). For the same compound, the “Herbicidal effects Barnyard grass” value ([4]; chemical dosage 10 g/a) was 4 (Growth inhibition rate; 71 to 90%), the “Herbicidal effects Barnyard grass” value ([4]; chemical dosage 20 g/a) was 4 (Growth inhibition rate; 71 to 90%) and the “Crop injury against transplanted rice” value ([5]; chemical dosage 10 g/a) was 1 (Growth inhibition rate; 11 to 30%). For the same compound, the “Crop injury against transplanted rice” value ([5]; chemical dosage 20 g/a) was 3 (Growth inhibition rate; 51 to 70%).

In the case of CC(C)c1cccc(Br)c1Oc1nnc(Cl)cc1O [Example 19], the “Herbicidal effects Cyperus serotinus” value ([1]; chemical dosage 12.5 g/a) is reported as 5 (Growth inhibition rate; 91 to 100%), the “Herbicidal effects Cyperus serotinus” value ([1]; chemical dosage 25 g/a) is reported as 5 (Growth inhibition rate; 91 to 100%) and the “Herbicidal effects Scirpus joncoides” value ([2]; chemical dosage 12.5 g/a) is reported as 4 (Growth inhibition rate; 71 to 90%). For the same compound, the “Herbicidal effects Scirpus joncoides” value ([2]; chemical dosage 25 g/a) was 4 (Growth inhibition rate; 71 to 90%), the “Herbicidal effects Broad leaf” value ([3]; chemical dosage 12.5 g/a) was 5 (Growth inhibition rate; 91 to 100%) and the “Herbicidal effects Broad leaf” value ([3]; chemical dosage 25 g/a) was 5 (Growth inhibition rate; 91 to 100%). The “Herbicidal effects Barnyard grass” value ([4]; chemical dosage 12.5 g/a) was 0 (Growth inhibition rate; 0 to 10%), the “Herbicidal effects Barnyard grass” value ([4]; chemical dosage 25 g/a) was 1 (Growth inhibition rate; 11 to 30%) and the “Crop injury against transplanted rice” value ([5]; chemical dosage 12.5 g/a) was 1 (Growth inhibition rate; 11 to 30%). The “Crop injury against transplanted rice” value ([5]; chemical dosage 25 g/a) was 1 (Growth inhibition rate; 11 to 30%).

Cc1ccccc1Oc1nnc(Cl)cc1OC(=O)c1ccccc1 [Example 328] was tested, and the “Herbicidal effects Cyperus serotinus” value ([1]; chemical dosage 10 g/a) was 5 (Growth inhibition rate; 91 to 100%), the “Herbicidal effects Cyperus serotinus” value ([1]; chemical dosage 20 g/a) was 5 (Growth inhibition rate; 91 to 100%) and the “Herbicidal effects Scirpus joncoides” value ([2]; chemical dosage 10 g/a) was 3 (Growth inhibition rate; 51 to 70%). The “Herbicidal effects Scirpus joncoides” value ([2]; chemical dosage 20 g/a) was 5 (Growth inhibition rate; 91 to 100%), the “Herbicidal effects Broad leaf” value ([3]; chemical dosage 10 g/a) was 3 (Growth inhibition rate; 51 to 70%) and the “Herbicidal effects Broad leaf” value ([3]; chemical dosage 20 g/a) was 5 (Growth inhibition rate; 91 to 100%). The “Herbicidal effects Barnyard grass” value ([4]; chemical dosage 10 g/a) was 3 (Growth inhibition rate; 51 to 70%), the “Herbicidal effects Barnyard grass” value ([4]; chemical dosage 20 g/a) was 4 (Growth inhibition rate; 71 to 90%) and the “Crop injury against transplanted rice” value ([5]; chemical dosage 10 g/a) was 0 (Growth inhibition rate; 0 to 10%). For the same compound, the “Crop injury against transplanted rice” value ([5]; chemical dosage 20 g/a) was 0 (Growth inhibition rate; 0 to 10%).

CSCc1c(C)ccc(C)c1Oc1nnc(Cl)cc1O [Example 303] was tested, and the “Herbicidal effects Cyperus serotinus” value ([1]; chemical dosage 12.5 g/a) was 5 (Growth inhibition rate; 91 to 100%), the “Herbicidal effects Cyperus serotinus” value ([1]; chemical dosage 25 g/a) was 5 (Growth inhibition rate; 91 to 100%) and the “Herbicidal effects Scirpus joncoides” value ([2]; chemical dosage 12.5 g/a) was 3 (Growth inhibition rate; 51 to 70%). The “Herbicidal effects Scirpus joncoides” value ([2]; chemical dosage 25 g/a) was 4 (Growth inhibition rate; 71 to 90%), the “Herbicidal effects Broad leaf” value ([3]; chemical dosage 12.5 g/a) was 3 (Growth inhibition rate; 51 to 70%) and the “Herbicidal effects Broad leaf” value ([3]; chemical dosage 25 g/a) was 4 (Growth inhibition rate; 71 to 90%). For the same compound, the “Herbicidal effects Barnyard grass” value ([4]; chemical dosage 12.5 g/a) was 0 (Growth inhibition rate; 0 to 10%), the “Herbicidal effects Barnyard grass” value ([4]; chemical dosage 25 g/a) was 1 (Growth inhibition rate; 11 to 30%) and the “Crop injury against transplanted rice” value ([5]; chemical dosage 12.5 g/a) was 0 (Growth inhibition rate; 0 to 10%). For the same compound, the “Crop injury against transplanted rice” value ([5]; chemical dosage 25 g/a) was 0 (Growth inhibition rate; 0 to 10%).
